# According to patent US20190174748A1, “COMPOSITION FOR DELIVERY OF ACTIVE AGENTS TO AN ANIMAL” (priority 2015, published 2019):
# B1: ovalbumin (protein, UniProt P01012 2-386, looked up)
# Ovalbumin: GSIGAASMEFCFDVFKELKVHHANENIFYCPIAIMSALAMVYLGAKDSTRTQINKVVRFDKLPGFGDSIEAQCGTSVNVHSSLRDILNQITKPNDVYSFSLASRLYAEERYPILPEYLQCVKELYRGGLEPINFQTAADQARELINSWVESQTNGIIRNVLQPSSVDSQTAMVLVNAIVFKGLWEKAFKDEDTQAMPFRVTEQESKPVQMMYQIGLFRVASMASEKMKILELPFASGTMSMLVLLPDEVSGLEQLESIINFEKLTEWTSSNVMEERKIKVYLPRMKMEEKYNLTSVLMAMGITDVFSSSANLSGISSAESLKISQAVHAAHAEINEAGREVVGSAEAGVDAASVSEEFRADHPFLFCIKHIATNAVLFFGRCVSP
# notes: ovalbumin, model vaccine / protein antigen, unprotected
# How the values were obtained:
# [1] = tested on: Rodents; details: rodents ingesting baits; cited from earlier work
# [2] = tested on: BALB/C mice; details: baits at 4% Warfarin activity
# Source text: Experimental Methods: Ten-twelve week old female BALB/C mice are used. Mice are fed ad libitum. Each experimental group is housed in a separate cage.
# The feed intake and kill effect on the mice are monitored.
# [3] = tested on: rats; details: 250-500 g rats, baits at 4% Warfarin activity
# Source text: Experimental Methods: 250-500 g rats are used. Rats are fed ad libitum. Each experimental group is housed in a separate cage.
# The feed intake and kill effect on the rats are monitored.
# [4] = tested on: BALB/C mice; assay: Oral administration of OVA composition to mice: OVA specific IgG, IgA (ELISA) and ASC; type: in vivo; details: mice inoculated at 0 and 3 weeks, sampled at week 4
# Protocol: Ovalbumin is orally administered to mice to test the efficacy of the inventive compositions in inducing an immune response.
# Ovalbumin composition: Ovalbumin (1 mg/g of ovalbumin, Sigma, St. Louis, Mo.,) is incorporated into the inventive composition as described in Example 5. Three groups of 4 mice each are inoculated as follows: 1) ovalbumin (OVA) in the composition, administered orally, 2) OVA solution, administered subcutaneously (SC), 3) antigen free composition administered orally. Mice are inoculated at 0 and 3 weeks. Each dose administers a total 100 mg of dry composition mixed with corn oil at a ratio of 1:2 w/w of dry composition/oil, coated onto feed pellets. At week 4 each mouse is euthanized and serum and spleen cells are harvested.
# Immunological assays: Serum is assayed for IgG and IgA by ELISA. ELISA is performed using OVA absorbed to polystyrene plates. Samples are placed in wells in triplicate at a 1:25 dilution for serum. Goat anti-mouse antibody conjugated with horse radish peroxidase is used, followed by an orthophenylenediamine substrate (Sigma, St. Louis, Mo., U.S.A.). Optical density of each well is determined by placing the plate in a microtiter plate spectrophotometer and reading the plate at 490 nm. Spleen cells are tested for antibody secreting cells (ASC) specific for OVA, using techniques described previously.
# [5] = Degradation of unprotected OVA in simulated gastric fluid with 0.08% pepsin, pH 2; type: in vitro ADME; details: pH 2, 37° C.
# Protocol: Western Blot: the compositions were lysed with RIPA buffer as described above, and a calculated amount equivalent to 12 μg of protein per sample was loaded on a 10% SDS-polyacrylamide gradient gel (SDS-PAGE, Bio-Rad, Hercules, Calif.). Proteins were transferred onto a PVDF membrane (Bio-Rad) and blocked for 1 h with 5% non-fat milk in PBS containing 0.5% Tween-20 (PBS-T). Blots were incubated with an appropriate primary antibody at 1:5000 dilutions for 1 h at room temperature. After washing with PBS-T (3×10 mL, 5 min. each), the membranes were incubated with an appropriate HRP-conjugated secondary antibody (EMD Millipore Corporation, Billerica, Mass., USA) at 1:5000 dilution for 1 h. After washing with PBS-T (3×10 mL, 5 min. each), chemiluminescent films were developed with an ECL substrate (Amsheram Biosciences).
# To evaluate the loss of activity of a protein antigen following a typical gastric exposure, non-encapsulated OVA (10 mg) was incubated in 10 ml simulated gastric fluid containing 0.08% pepsin at pH-2 for 2 h at 37° C. on a shaker. Medium was withdrawn at 15 min, 30 min, 60 min and 120 min incubation times, and the amount of residual OVA was analyzed using Western Blot analysis as described above.
molecule,measurement,setting,value
CC(=O)CC(c1ccccc1)c1c(O)c2ccccc2oc1=O (stereo not shown) [Warfarin],time to become unconscious,[1],1 to 2 h
same,time to obvious symptoms of poisoning,[1],15 to 30 min
same,time to recovery after sub lethal amount,[1],≤ 8 h
same,kill effect after 8 h from feeding,[2],all group 2 mice remain alive
same,kill effect after 8 h from feeding,[3],all group 2 rats remain alive
"ovalbumin [non-encapsulated OVA, ovalbumin, model vaccine / protein antigen, unprotected]","OVA specific serum IgA, IgG and ASC secreting cells",[4],equally increased
B1,Remaining activity (%),"[5]; 15 min in simulated gastric fluid, relative to pre-exposure activity",61%
same,Remaining activity (%),[5]; 30 min in simulated gastric fluid,55%
same,Remaining activity (%),[5]; 60 min in simulated gastric fluid,38%
same,Remaining activity (%),[5]; 120 min in simulated gastric fluid,2%
